Assays:
[1] = Chrome azurol S (CAS) agar plate siderophore zone test for Fe-binding; conditions: 200 μL of 0.2 mM compound solution in Oxford cup, let stand for 3 h
Description: Chrome azurol S (CAS) agar plate, namely the siderophore screening medium consisting of 1 mL of 20% glucose solution, 3 mL of 10% casein, 100 μL of 1 mmoL/L CaCl2), 2 mL of 1 mmoL/L MgSO4, 100 mL of H2O, and 1.8 g of agar, was heated, and supplemented with 5 mL each of CAS dye solution and phosphate buffered saline (PBS) at 60° C. slowly to obtain a CAS-blue agar medium.
CAS dye solution included: 1 mmol/L CAS, 4 mmol/L hexadecyl trimethyl ammonium bromide, and 0.1 mmol/L FeCl3.
PBS (pH 6.8) included: 2.427 g of Na2HPO4.12H2O, 0.5905 g of NaH2PO4.2H2O, 0.075 g of KH2PO4, 0.250 g of NH4Cl, 0.125 g of NaCl, and 100 mL of H2O. All the above solutions were prepared with deionized water. […]
The Fe-binding ability of xerucitrinin A was detected by using the CAS agar plate. […] The growth of Foc TR4 is inhibited by binding Fe.

spores of Foc TR4 = assay: Effect on spore morphology of Foc TR4 in Gauze's Medium #1, observed under a scanning electron microscope; assay type: cell-based, Fusarium oxysporum f. sp. cubense tropical race 4
Description: XcA (the compound xerucitrinin A) at a final concentration of 3 mM was added to Gauze's Medium #1, and the filtered spore suspension of Foc was added, with a final spore concentration of 1×10^7 spores/mL. The control treatment was implemented by treating with the same volume of sterile water. The spore suspension was cultured at 28° C. in the dark for 24 h. The spores of Foc were collected and fixed in a 2.5% (v/v) glutaraldehyde solution at 4° C. overnight. The fixed spores were rinsed twice with 0.1 mol/L PBS (pH 7.4), dehydrated gradiently with 30%, 50%, 70%, 80%, 90%, 95%, and 100% ethanol solutions for 20 min, dried and subjected to gold spraying. The spore morphology of Foc TR4 was observed under a scanning electron microscope.

[2] = system: Brazilian banana seedlings; assay: Effect on the growth of Brazilian banana seedlings in treated Gauze's Medium #1; assay type: in vivo; conditions: 3 mM in Gauze's Medium #1; 6 Brazilian banana seedlings per treatment
Description: XcA was dissolved in ethanol. In order to investigate the effect of XcA on the growth of Brazilian banana, 3 mM XcA was added to Gauze's Medium #1. A volume of ethanol (CK) equal to the compound concentration was added to the control. A negative control was set up, and 200 μM 8-hydroxyquinoline (8HQ) was added to the Gauze's Medium #1. Then Brazilian banana seedlings were planted in a culture plate containing the above-mentioned treated medium. Each treatment had 6 replicates (6 Brazilian banana seedlings). The culture plate containing Brazilian banana seedlings was placed in a growth chamber to grow for 10 days to observe the effect on plant growth. Each treatment continued to grow for two months, during which an equal volume of sterile water was supplemented, and the plant height, root weight and seedling weight of each treatment were determined.

Q: With `Cc1c(O)c(C)c2c(c1O)CO[C@]1(C[C@H]3O[C@H](C)[C@@H](C)c4c(C)c(O)c(O)c(c43)O1)[C@H]2C` [xerucitrinin A] as the compound, how does the “Fe-binding ability (siderophore zone around the Oxford cup)” value [1] read?
A: a siderophore zone appeared around the Oxford cup

Q: And the “spore morphology of Foc” value (spores of Foc TR4)?
A: obvious crenation on the surface of the spores

Q: What about the “germination and growth of the spores of Foc” value (spores of Foc TR4; 3 mM in Gauze's Medium #1, 28° C. in the dark for 24 h) of the same compound?
A: affect the germination and growth of the spores of Foc

Q: And the “effect on the growth of banana seedlings compared with the control” value [2]?
A: no adverse effect on the growth of banana seedlings
